In patent US20250205342A1, “IRAK DEGRADERS AND USES THEREOF” (Kymera Therapeutics, Inc., priority 2022, published 2025):

Key:
[1] = target: T1, IRAK4 (Homo sapiens, UniProt Q9NWZ3); experiment: IRAK4 degradation in OCI-LY10 (MSD, Meso Scale Discovery); assay type: cell-based; set-up: endogenous in cells; host or cells: OCI-LY10; conditions: OCI-LY10 cells, 24 h
T1 sequence (Q9NWZ3 1-460): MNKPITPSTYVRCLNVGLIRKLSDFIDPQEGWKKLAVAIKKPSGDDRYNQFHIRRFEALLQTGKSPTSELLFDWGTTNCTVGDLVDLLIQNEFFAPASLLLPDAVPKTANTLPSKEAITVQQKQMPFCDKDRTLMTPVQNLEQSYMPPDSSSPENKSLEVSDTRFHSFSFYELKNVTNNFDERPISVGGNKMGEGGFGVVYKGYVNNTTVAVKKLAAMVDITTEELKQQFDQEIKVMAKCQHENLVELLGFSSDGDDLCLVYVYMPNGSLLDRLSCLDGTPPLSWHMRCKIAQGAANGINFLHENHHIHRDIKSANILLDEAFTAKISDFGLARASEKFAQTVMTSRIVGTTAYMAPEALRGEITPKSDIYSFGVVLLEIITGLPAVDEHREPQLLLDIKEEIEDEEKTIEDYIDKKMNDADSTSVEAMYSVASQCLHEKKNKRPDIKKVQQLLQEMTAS
Description: Degradation of IRAK4 in OCI-LY10 was quantitatively measured using Meso Scale Discovery technology. OCI-LY10 cells were seeded in 96-well plates (Corning 3799) with a density of 300,000 cells per well in 100 μL fresh media. Compounds were then added to the assay plates with a final top concentration of 1 to 10 μM in a 1:3 dilution series with total of 8 doses. The assay plates were then incubated for 4 to 24 hours at 37° C. under 5% CO2. The assay plates were then centrifuged for 5 minutes and the cell pellets were treated with 100 μL/well RIPA lysis buffer (Boston BioProducts BP-115D) with proteinase inhibitors. To prepare MSD assay plates (Meso Scale Discovery Catalog number L15XA-3), the plates were coated with 2 ug/mL capture antibody (mouse Anti-IRAK4 antibody [2H9], ab119942) in PBS, at 40 μL/well. The plates were then incubated overnight at […], washed 3 times with 150 μL/well TBST buffer (Cell Signaling Technology, Catalog number 9997S) and blocked with 150 μL/well blocking buffer (Meso Scale Discovery Catalog number R^93BA-4). Cell lysates were then added to MSD assay plates and the plates were incubated at room temperature for 1 hour. The plates were then washed 3 times with 150 μL/well TBST buffer and 25 μL/well primary detection antibody (rabbit Anti-IRAK4 antibody [Y279], from Abcam. Catalog number ab32511, 1 μg/mL). The assay plates were then incubated at room temperature for 1 hour, washed 3 times with 150 μL/well TBST buffer and 25 μL/well secondary detection antibody, SULFO-TAG anti-rabbit antibody were added (anti-rabbit antibody from Meso Scale Discovery, Catalog number R^32AB-1, 1 μg/mL). The assay plates were then incubated at room temperature for 1 hour, washed 3 times with 150 μL/well TBST buffer, and 150 μL/well MSD reading buffer (Meso Scale Discovery catalog number R^92TC-2) was added. The plates were then analyzed by a MSD reader (Meso Scale Discovery, Model Quick Plex SQ 120). The data was then analyzed by software Prism 7.0 from GraphPad and the dose-depended IRAK4 degradation were fit using a three-parameter logistic equation to calculate DC50.
(§1) IRAK4 MSD degradation in OCI-LY10 results at 4 and 24 hrs and hPBMC at 20 hrs for compounds of the invention are presented in Table 3. The letter codes for IRAK4 DC50 include: A (<0.1 μM), B (0.1-1.0 μM), C(>1.0-10.0 μM), D (>10.0 μM or not determined).

[2] = target: T1, IRAK4; experiment: hPBMC IRAK4 degradation flow assay (monocytes); assay type: cell-based; set-up: endogenous in cells; host or cells: human PBMCs (monocytes, CD14 positive gate); conditions: CD14 positive monocytes, 20 h, read-out: hPBMC monocyte DC50 at 20 h
Description: In the hPBMC IRAK4 degradation flow assay, frozen PBMCs were thawed into RPMI with 10% FBS and allowed to recover. On the same day as thawed, PBMCs were plated in 96 well plate, 90 μL per well. Compound plates were prepared and a 10 point, 5-fold dilution was performed with a final DMSO concentration of 0.1%. Compound 10 μL per well was added, sealed and incubated at 37° C., 5% CO2 for 20 hours (for 4 hour treatment, compounds were prepared and added the following day). Following the treatment incubation period (day 1), 1.6% PFA was added to PBMC plate and placed on plate shaker for 30 seconds and incubated for 10 mins at room temperature. Cells were spun down and washed two times with PBS/0.5% BSA, aspirated to pellet and placed into −80° C. freezer until further processing for flow. On the flow run day, PBMC plates were thawed and samples were transferred to PCR plates. The pre-perm staining cocktail (CD3 Ax488/CD8 BUV805/CD14 BUV395/CD16/56 BV711/CD19 BV785) was added to samples and incubated for 30 minutes at room temperature. Samples were washed two times and permeabilized with methanol for 10 minutes at 4° C. Samples were washed two times and the post-perm staining cocktail (CD4 PE/IRAK4 Ax647 BD #560315) was added and incubated for 30 minutes at room temperature. Samples were washed two times with PBS/BSA and run on a BD LSRFortessa. Mononuclear cells are gated by SSCH/FSCH and single cells. Monocytes are then gated through CD14 positive gate and lymphocytes are gated through CD14 negative gate. To determine absolute DC50 and max degradation values, MFI values were normalized to DMSO max and 20 hour 10 µM min control. Twenty hour dose curves were calculated using a 4 parameter logistic regression curve fit, no constraints (Top doses were removed if hook effects were observed and the bottom was constrained to 0).
as §1

Row | SMILES | DC50 [1] | DC50 [2]
1 | CCOC(=O)Cn1cc(NC(=O)c2cc(CCCNC[C@H]3CC[C@H](n4cc5cc(NC(=O)c6cccc(C(F)(F)F)n6)c(C(C)(C)O)cc5n4)CC3)cc(-c3cccnc3)c2)ccc1=O [Compound I-82] | > 10 µM | > 10 µM
2 | COc1cc2nn([C@H]3CC[C@H](CN4CCC(c5cncc(N6CCC[C@H](C(=O)Nc7ccc(=O)n(CC(=O)O)c7)C6)c5)CC4)CC3)cc2cc1NC(=O)c1cccc(C(F)(F)F)n1 [Compound I-10] | > 10 µM | > 10 µM
3 | CCOC(=O)Cn1cc(NC(=O)[C@H]2CCCN(c3cncc(C#CCOC4CCN(C[C@H]5CC[C@H](n6cc(NC(=O)c7cnn8ccc(N9C[C@H]%10C[C@@H]9CO%10)nc78)c(C(F)F)n6)CC5)CC4)c3)C2)ccc1=O [Compound I-23] | > 10 µM | 1 to 10 µM
4 | CCOC(=O)Cn1cc(NC(=O)[C@H]2CCCN(c3cncc(OCCOCCOCCOCCOCCNC[C@H]4CC[C@H](n5cc6cc(NC(=O)c7cccc(C(F)(F)F)c7)c(OC)cc6n5)CC4)c3)C2)ccc1=O [Compound I-43] | > 10 µM | 1 to 10 µM
5 | CCOC(=O)Cn1cc(NC(=O)c2cc(CCCCCCNC[C@H]3CC[C@H](n4cc5cc(NC(=O)c6cccc(C(F)(F)F)n6)c(C(C)(C)O)cc5n4)CC3)cc(-c3cccnc3)c2)ccc1=O [Compound I-95] | > 10 µM | > 10 µM
6 | CCOC(=O)Cn1cc(NC(=O)c2cccc3c2ccn3CCCNC[C@H]2CC[C@H](n3cc(NC(=O)c4cnn5ccc(N6C[C@H]7C[C@@H]6CO7)nc45)c(C(F)F)n3)CC2)ccc1=O [Compound I-81] | > 10 µM | > 10 µM
7 | CCOC(=O)Cn1cc(NC(=O)[C@H]2CCCN(c3cncc(CCCCNC[C@H]4CC[C@H](n5cc6cc(NC(=O)c7cccc(C(F)(F)F)n7)c(OC)cc6n5)CC4)c3)C2)ccc1=O [Compound I-31] | > 10 µM | > 10 µM
8 | CCOC(=O)Cn1cc(NC(=O)[C@H]2CCCN(c3cncc(CCCCCCNC[C@H]4CC[C@H](n5cc(NC(=O)c6cnn7ccc(N8C[C@H]9C[C@@H]8CO9)nc67)c(C(F)F)n5)CC4)c3)C2)ccc1=O [Compound I-32] | > 10 µM | > 10 µM
9 | O=C(O)Cn1cc(NC(=O)[C@H]2CCCN(c3cncc(NCCOCCOCCNC[C@H]4CC[C@H](n5cc(NC(=O)c6cnn7ccc(N8C[C@H]9C[C@@H]8CO9)nc67)c(C(F)F)n5)CC4)c3)C2)ccc1=O [Compound I-2] | > 10 µM | > 10 µM
10 | CCOC(=O)Cn1cc(NC(=O)c2cccc(-c3cncc(CCCCCCNC[C@H]4CC[C@H](n5cc(NC(=O)c6cnn7ccc(N8C[C@H]9C[C@@H]8CO9)nc67)c(C(F)F)n5)CC4)c3)c2)ccc1=O [Compound I-99] | > 10 µM | > 10 µM
11 | COc1cc2nn([C@H]3CC[C@H](CNCCc4cncc(N5CCC[C@H](C(=O)Nc6ccc(=O)n(CC(=O)O)c6)C5)c4)CC3)cc2cc1NC(=O)c1cccc(C(F)(F)F)n1 [Compound I-26] | > 10 µM | > 10 µM
12 | CCOC(=O)Cn1cc(NC(=O)[C@H]2CCCN(c3cncc(NCCOCCOCCOCCOCCNC[C@H]4CC[C@H](n5cc6cc(NC(=O)c7cccc(C(F)(F)F)n7)c(OC)cc6n5)CC4)c3)C2)ccc1=O [Compound I-13] | > 10 µM | 1 to 10 µM
13 | CCOC(=O)Cn1cc(NC(=O)c2cc(CCCNC[C@H]3CC[C@H](n4cc(NC(=O)c5cnn6ccc(N7C[C@H]8C[C@@H]7CO8)nc56)c(C(F)F)n4)CC3)cc(-c3cccnc3)c2)ccc1=O [Compound I-83] | > 10 µM | > 10 µM
14 | COc1cc2nn([C@H]3CC[C@H](CNCCOCCOCCOCCOCCNc4cncc(N5CCC[C@H](C(=O)Nc6ccc(=O)n(CC(=O)O)c6)C5)c4)CC3)cc2cc1NC(=O)c1cccc(C(F)(F)F)n1 [Compound I-3] | > 10 µM | > 10 µM

Now from value to compound:

Row | DC50 [1] | DC50 [2] | SMILES
15 | > 10 µM | > 10 µM | CCOC(=O)Cn1cc(NC(=O)c2cccc(-c3cncc(CCCNC[C@H]4CC[C@H](n5cc(NC(=O)c6cnn7ccc(N8C[C@H]9C[C@@H]8CO9)nc67)c(C(F)F)n5)CC4)c3)c2)ccc1=O [Compound I-91]
16 | > 10 µM | > 10 µM | O=C(O)Cn1cc(NC(=O)[C@H]2CCCN(c3cncc(C4CCN(C[C@H]5CC[C@H](n6cc(NC(=O)c7cnn8ccc(N9C[C@H]%10C[C@@H]9CO%10)nc78)c(C(F)F)n6)CC5)CC4)c3)C2)ccc1=O [Compound I-12]
17 | > 10 µM | > 10 µM | O=C(O)Cn1cc(NC(=O)c2cc(CCCCCCNC[C@H]3CC[C@H](n4cc(NC(=O)c5cnn6ccc(N7C[C@H]8C[C@@H]7CO8)nc56)c(C(F)F)n4)CC3)cc(-c3cccnc3)c2)ccc1=O [Compound I-93]
18 | > 10 µM | > 10 µM | O=C(O)Cn1cc(NC(=O)c2cccc3c2ccn3CCCCCCNC[C@H]2CC[C@H](n3cc(NC(=O)c4cnn5ccc(N6C[C@H]7C[C@@H]6CO7)nc45)c(C(F)F)n3)CC2)ccc1=O [Compound I-59]
19 | 1 to 10 µM | 1 to 10 µM | CCOC(=O)Cn1cc(NC(=O)c2cc(CCCCCCCCCNC[C@H]3CC[C@H](n4cc5cc(NC(=O)c6cccc(C(F)(F)F)n6)c(C(C)(C)O)cc5n4)CC3)cc(-c3cccnc3)c2)ccc1=O [Compound I-72]
20 | > 10 µM | > 10 µM | O=C(O)Cn1cc(NC(=O)c2cccc3c2ccn3CCCCCCCCCNC[C@H]2CC[C@H](n3cc(NC(=O)c4cnn5ccc(N6C[C@H]7C[C@@H]6CO7)nc45)c(C(F)F)n3)CC2)ccc1=O [Compound I-70]
21 | > 10 µM | > 10 µM | COc1cc2nn([C@H]3CC[C@H](CNCCCCc4cncc(N5CCC[C@H](C(=O)Nc6ccc(=O)n(CC(=O)O)c6)C5)c4)CC3)cc2cc1NC(=O)c1cccc(C(F)(F)F)n1 [Compound I-25]
22 | > 10 µM | 0.1 to 1 µM | COc1cc2nn([C@H]3CC[C@H](CNCCCCCCc4cncc(N5CCC[C@H](C(=O)Nc6ccc(=O)n(CC(=O)O)c6)C5)c4)CC3)cc2cc1NC(=O)c1cccc(C(F)(F)F)n1 [Compound I-24]
23 | 1 to 10 µM | > 10 µM | CC(C)(O)c1cc2nn([C@H]3CC[C@H](CNCCCCCCc4cncc(-c5cccc(C(=O)Nc6ccc(=O)n(CC(=O)O)c6)c5)c4)CC3)cc2cc1NC(=O)c1cccc(C(F)(F)F)n1 [Compound I-94]
24 | > 10 µM | > 10 µM | CC(C)(O)c1cc2nn([C@H]3CC[C@H](CNCCCCCCCCCc4cccc5c(-c6cccc(C(=O)Nc7ccc(=O)n(CC(=O)O)c7)c6)cncc45)CC3)cc2cc1NC(=O)c1cccc(C(F)(F)F)n1 [Compound I-50]
